# Read-outs that look alike come from different tables or passages of the source.
# What was measured:
# [1] = tested on: HCV replicon in Huh-5-2 cells; assay: Anti-HCV replicon assay, luciferase activity in Huh-5-2 cells; type: cell-based; details: Hepatitis C virus, Table 11, inhibition of luciferase activity in the replicon system by 50%
# Protocol: (§1) Cells were seeded at a density of 7000 cells per well in 96 well View Plate™ (Packard) in medium containing the same components as described above, except for G418. Cells were allowed to adhere and proliferate for 24 hr. At that time, culture medium was removed and serial dilutions of the test compounds were added in culture medium lacking G418. Interferon alfa 2a (500 IU) was included as a positive control. Plates were further incubated at 37° C. and 5% CO2 for 72 hours. Replication of the HCV replicon in Huh-5 cells results in luciferase activity in the cells. Luciferase activity is measured by adding 50 μl of 1× Glo-lysis buffer (Promega) for 15 minutes followed by 50 ul of the Steady-Glo Luciferase assay reagent (Promega). Luciferase activity is measured with a luminometer and the signal in each individual well is expressed as a percentage of the untreated cultures. […] Instead the density of the culture is measured by means of the MTS method (Promega).
# [2] = tested on: HCV replicon (RNA) synthesis in Huh-5-2 cells; assay: Quantitative analysis of HCV replicon RNA by Taqman real-time RT-PCR in Huh-5-2 cells; type: cell-based, Hepatitis C Virus; details: for Delta CT: higher value = more profound inhibition of viral RNA synthesis; for CT: real-time RT-PCR, untreated 28.86 ± 0.04
# Protocol: Replicon cells were plated at 7.5×10^3 cells per well in a 96-well plate plates at 37° C. and 5% CO2 in Dulbecco's modified essential medium containing 10% fetal calf serum, 1% nonessential amino acids and 1 mg/ml Geneticin. After allowing 24 h for cell attachment, different dilutions of compound were added to the cultures. Plates were incubated for 5 days, at which time RNA was extracted using the Qiamp Rneazyi Kit (Qiagen, Hilden, Germany). […] After initial activation of uracil-N-glycosylase at 50° C. for 2 minutes, RT was performed at 60° C. for 30 minutes, followed by inactivation of uracil-N-glycosylase at 95° C. for 5 minutes. Subsequent PCR amplification consisted of 40 cycles of denaturation at 94° C. for 20 seconds and annealing and extension at 62° C. for 1 minute in an ABI 7700 sequence detector. For each PCR run, negative template and positive template samples were used. The cycle threshold value (Ct-value) is defined as the number of PCR cycles for which the signal exceeds the baseline, which defines a positive value. The sample was considered to be positive if the Ct-value was <50. Results are expressed as genomic equivalents (GE).
# [3] = tested on: BVDV-1 (strain PE515); assay: Anti-BVDV assay, virus-induced cytopathic effect in MDBK cells (MTS); type: cell-based, Bovine Viral Diarrhea Virus; details: reduction of virus induced cytopathic effect in MDBK cells by 50%
# Protocol: (§2) Madin-Darbey Bovine Kidney (MDBK) cells were maintained in Dulbecco's modified Eagle medium (DMEM) supplemented with BVDV-free 5% fetal calf serum (DMEME-FCS) at 37° C. in a humidified, 5% CO2 atmosphere. BVDV-1 (strain PE515) was used to assess the antiviral activity in MDBK cells. Vero cells were maintained in the same way as MDBK cells. Vero cells were infected with Coxsackie B3 virus (strain Nancy).
# Ninety-six-well cell culture plates were seeded with MDBK cells in DMEM-FCS so that cells reached 24 hr later confluency. Then medium was removed and serial 5-fold dilutions of the test compounds were added in a total volume of 100 ul, after which the virus inoculum (100 ul) was added to each well. […] Uninfected cells and cells receiving virus without compound were included in each assay plate. After 5 days, medium was removed and 90 μl of DMEM-FCS and 10 ul of MTS/PMS solution (Promega) was added to each well. Following a 2 hr incubation period at 37° C. the optical density of the wells was read at 498 nm in a microplate reader.
# [4] = Cytostatic effect on exponentially growing MDBK cells (MTS); type: cell-based, Bovine; details: bovine; Table 9; reduction of growth of exponentially growing MDBK cells by 50%; mean of 2-5 determinations
# Protocol: (§3) Madin-Darbey Bovine Kidney (MDBK) cells were maintained in Dulbecco's modified Eagle medium (DMEM) supplemented with BVDV-free 5% fetal calf serum ([…]) at 37° C. in a humidified, 5% CO2 atmosphere. […] Vero cells were maintained in the same way as MDBK cells. […] The effect of the drugs on exponentially growing MDBK cells was assessed as follows. Cells were seeded at a density of 5000 cell/well in 96 well plates in MEM medium (Gibco) supplemented with 10% fetal calf serum, 2 mM L-glutamine (Life Technologies) and bicarbonate (Life Technologies). […] Cultures were then again further incubated for 3 days after which the effect on cell growth was quantified by means of the MTS method (Promega).
# [5] = Proliferation of exponentially growing Huh-5-2 cells (MTS); type: cell-based; details: human, exponentially growing Huh-5-2 cells (HCV replicon cell line); Table 11; inhibition of proliferation of exponentially growing Huh-5-2 cells by 50%
# Protocol: as §1
# [6] = tested on: MDBK cells; assay: Cytostatic effect on exponentially growing MDBK cells (MTS); type: cell-based, Bovine; details: for MTC: Table 10, mean toxic concentration, reduces growth of exponentially growing MDBK cells by 50%
# Protocol: as §3
# [7] = tested on: Vero cells; assay: Metabolism of confluent Vero cells (MTS); type: cell-based; details: Table 13; reduction of metabolism of confluent Vero cells by 50%, MTS method
# Protocol: as §2
# (§4) Ninety-six-well cell culture plates were seeded with Vero cells in DMEM medium containing 10 fetal calf serum (FCS) so that cells reached confluency 24-48 hr later. Medium was then removed and serial 5-fold dilutions of the test compounds were added in a total volume of 100 ul, after which the virus inoculum (100 μl) was added to each well. […] Uninfected cells and cells receiving virus without compound were included in each asay plate. After 5 days, the medium was removed and 90 μl of DMEM-FCS and 10 μl of MTS/PMS solution (Promega) was added to each well. Following a 2 hr incubation period at 37° C., the optical density of the wells was read at 498 nm in a microplate reader. The 50% effective concentration (EC50) value was defined as the concentration of compound that protects 50% of the cell monolayer from virus-induced cytopathic effect.
# [8] = tested on: Coxsackie B3 virus (strain Nancy); assay: Anti-coxsackie virus assay, cytopathic effect in Vero cells (MTS); type: cell-based; details: Enterovirus B, Table 13, reduction of virus (CBV-3 Nancy strain)-induced cytopathic effect in Vero cells by 50%
# Protocol: as §2, §4
# [9] = tested on: BVDV (strain NADL); type: cell-based, Bovine Viral Diarrhea Virus; details: GPJN22-resistant BVDV (F224S)
# Protocol: Wild type BVDV (strain NADL) was twice plaque purified on MDBK cells. The entire coding region of the genome of this virus was sequenced. This plaque purified and sequenced virus was then cultured in the presence of increasing drug concentrations of compound (GPJN22). Following 12 passages, the virus was at least 25 fold resistant to compound GPJN22. The resistant virus preparation was again plaque purified. The entire coding region of the genome of this virus was sequenced. A mutation F224S in the RNA dependent RNA polymerase gene of the virus was detected in 4 out of 4 clones of this virus; no other mutations were detected in the resistant viruses. The GPJN22-resistant virus was cross-resistant with VP32947 (see Table 8). VP32947 is an earlier reported selective inhibitor of BVDV replication [Baginski S G et al., Proc Natl Acad Sci USA. 2000 Jul. 5; 97(14):7981-6]. In VP32947-resistant BVDV, a similar mutation was identified as being responsible for the drug-resistance. To confirm that the F224S mutation is indeed responsible for the resistant phenotype, the mutation was reintroduced by site-directed mutagenesis in an full-length infectious clone of the BVDV (strain NADL) [Vassilev et al., J. Virol. 1997 January; 71(1):471-8.].
# [10] = Bovine viral diarrhea virus isolates and strains, Table 9, BVDV strain PE515, mean of 2-5 determinations, read-out: EC50
# [11] = Bovine viral diarrhea virus isolates and strains, Table 10, read-out: EC50
compound,measurement,setting,value
"Brc1ccc(Cn2ccc3nc(-c4ccccn4)nc-3c2)cc1 [GPJN-58, 5-[(4-Bromophenyl)methyl]-2-(2-pyridinyl)-5H-imidazo[4,5-c]pyridine]",EC50,[1],0.13 µg/mL
same,Delta CT,[2]; 0.0016 ug/ml,0.05
same,CT,[2]; 0.0016 ug/ml,28.91
same,Delta CT,[2]; 0.008 ug/ml,0.89
same,CT,[2]; 0.008 ug/ml,29.75
same,Delta CT,[2]; 0.04 ug/ml,1.03
same,CT,[2]; 0.04 ug/ml,29.89
same,Delta CT,[2]; 0.2 ug/ml,1.14
same,CT,[2]; 0.2 ug/ml,30.00
same,Delta CT,[2]; 1 ug/ml,4
same,CT,[2]; 1 ug/ml,32.86
same,EC50,[3]; [10],0.052 µg/mL
same,CC50 at 3 days,[4],8.1 µg/mL
same,CC50 at 72 hours,[5],2 µg/mL
"Fc1ccccc1-c1nc2ccn(Cc3ccc(Cl)cc3)cc-2n1 [GPJN-112, 5-[(4-Chlorophenyl)methyl]-2-(2-fluorophenyl)-5H-imidazo[4,5-c]pyridine]",EC50,[1],0.29 µg/mL
same,EC50,[3]; [11],0.0049 µg/mL
same,MTC,[6],20 µg/mL
same,CC50 at 72 hours,[5],> 17 µg/mL
"Fc1ccccc1-c1nc2ccn(Cc3ccc(I)cc3)cc-2n1 [GPJN-113, 2-(2-Fluorophenyl)-5-[(4-iodophenyl)methyl]-5H-imidazo[4,5-c]pyridine]",EC50,[1],0.17 µg/mL
same,EC50,[3]; [11],0.0031 µg/mL
same,MTC,[6],20 µg/mL
same,CC50 at 72 hours,[5],14 µg/mL
"Fc1cccc(F)c1Cn1ccc2nc(-c3c(F)cccc3F)nc-2c1 [GPRTI-8, 2-(2,6-Difluorophenyl)-5-[(2,6-difluorophenyl)methyl]-5H-imidazo[4,5-c]pyridine]",EC50,[3]; [10],0.137 µg/mL
same,TC50,[7],>100 µg/mL
same,melting point,,195 to 197 °C
same,CC50 at 3 days,[4],> 79 µg/mL
same,EC50,[8],12.2 µg/mL
"CCCN(CCC)CCSc1nnc2c(n1)[nH]c1ccccc12 [VP32947, 3-[((2-dipropylamino)ethyl)thio]-5H-1,2,4-triazino[5,6-b]indole, reference compound]",cross-resistance of the GPJN22-resistant virus,[9],cross-resistant
same,EC50,"[3]; Table 9, BVDV strain PE515, mean of 2-5 determinations",0.003 µg/mL
same,CC50,"[6]; Table 9, reduction of growth of exponentially growing MDBK cells by 50%, mean of 2-5 determinations",47 µg/mL
